Activity calls are given as the source filed them. No cut-off for these calls is given here.

The text below walks through data of ChEMBL document CHEMBL4699563, “Synthesis and evaluation of etoposide and podophyllotoxin analogs against topoisomerase IIα and HCT-116 cells” (2020).

The target in test [1] is DNA topoisomerase 2-alpha (Homo sapiens) (UniProt P11388). The test is described as follows: Inhibition of wild type human topoisomerase-2alpha expressed in Saccharomyces cerevisiae JEL1deltatop1 assessed as inhibition of supercoiled DNA relaxation at 100 to 200 uM using negatively supercoiled pBRDNA as substrate incubated for 15 mins in presence of ATP by gel electrophoresis. To be noted: dose microM 100-200, time 15.0 min.
Sequence of DNA topoisomerase 2-alpha (Homo sapiens) (P11388 whole entry): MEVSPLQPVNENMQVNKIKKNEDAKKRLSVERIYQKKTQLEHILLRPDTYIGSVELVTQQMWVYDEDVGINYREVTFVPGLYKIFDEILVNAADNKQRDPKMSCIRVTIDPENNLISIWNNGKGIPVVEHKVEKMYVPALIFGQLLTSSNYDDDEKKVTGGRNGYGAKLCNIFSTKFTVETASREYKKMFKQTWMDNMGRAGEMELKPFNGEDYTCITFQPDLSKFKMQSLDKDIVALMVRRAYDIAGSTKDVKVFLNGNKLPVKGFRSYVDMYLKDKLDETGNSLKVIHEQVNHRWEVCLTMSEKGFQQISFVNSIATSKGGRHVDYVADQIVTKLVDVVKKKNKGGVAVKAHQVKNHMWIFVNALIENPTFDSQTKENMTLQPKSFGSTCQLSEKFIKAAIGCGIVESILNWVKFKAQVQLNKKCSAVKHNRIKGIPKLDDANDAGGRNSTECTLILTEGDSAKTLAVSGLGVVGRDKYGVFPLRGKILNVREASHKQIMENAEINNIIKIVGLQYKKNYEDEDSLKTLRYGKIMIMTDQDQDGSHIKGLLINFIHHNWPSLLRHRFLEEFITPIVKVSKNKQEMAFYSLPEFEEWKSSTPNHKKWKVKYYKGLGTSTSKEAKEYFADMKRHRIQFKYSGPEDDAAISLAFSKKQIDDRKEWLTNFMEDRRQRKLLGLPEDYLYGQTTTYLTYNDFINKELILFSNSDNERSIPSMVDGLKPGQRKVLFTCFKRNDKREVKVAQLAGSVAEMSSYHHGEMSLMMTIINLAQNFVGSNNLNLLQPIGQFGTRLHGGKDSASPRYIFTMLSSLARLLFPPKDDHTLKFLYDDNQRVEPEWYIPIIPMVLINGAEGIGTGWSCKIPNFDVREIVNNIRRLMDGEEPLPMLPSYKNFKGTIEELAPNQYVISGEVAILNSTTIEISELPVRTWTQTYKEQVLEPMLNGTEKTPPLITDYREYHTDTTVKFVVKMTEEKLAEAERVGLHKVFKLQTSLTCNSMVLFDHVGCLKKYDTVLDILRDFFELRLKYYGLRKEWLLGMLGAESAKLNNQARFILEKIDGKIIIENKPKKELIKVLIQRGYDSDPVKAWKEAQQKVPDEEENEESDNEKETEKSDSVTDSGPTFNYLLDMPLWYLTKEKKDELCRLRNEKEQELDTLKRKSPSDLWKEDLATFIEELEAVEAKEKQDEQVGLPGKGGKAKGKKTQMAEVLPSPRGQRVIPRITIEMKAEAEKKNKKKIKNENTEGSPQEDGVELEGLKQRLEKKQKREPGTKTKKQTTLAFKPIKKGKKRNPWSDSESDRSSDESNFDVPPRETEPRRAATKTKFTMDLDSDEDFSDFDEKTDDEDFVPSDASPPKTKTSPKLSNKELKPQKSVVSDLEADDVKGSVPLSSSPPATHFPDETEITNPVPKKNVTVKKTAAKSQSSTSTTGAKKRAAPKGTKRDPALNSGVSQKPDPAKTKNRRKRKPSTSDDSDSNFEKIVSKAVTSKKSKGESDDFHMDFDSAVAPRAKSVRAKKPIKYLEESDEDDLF

The test system of test [2] is A549. The test is described as follows: Cytotoxicity against human A549 cells assessed as reduction in cell viability after 72 hrs by Alamar blue assay. Type of test: functional. To be noted: read-out: LD50 (the source's name).
The subject of test [3] is HCT-116. The test is described as follows: Cytotoxicity against human HCT-116 cells assessed as reduction in cell viability after 72 hrs by Alamar blue assay. Type of test: functional. The conditions noted are these: read-out: LD50 (the source's name). Background: The colour change of resazurin is a common sign of viable cells or microbes.
For test [4], the target named is DNA topoisomerase 2-alpha (Homo sapiens) (UniProt P11388). The test is described as follows: Inhibition of wild type human topoisomerase-2alpha expressed in Saccharomyces cerevisiae JEL1deltatop1 assessed as induction of supercoiled DNA cleavage at 100 to 200 uM using negatively supercoiled pBRDNA as substrate incubated for 30 mins by gel electrophoresis. The conditions noted are these: dose microM 100-200, time 30.0 min.

Test [5] deals with HCT-116. The test is described as follows: Cell cycle arrest in human HCT-116 cells assessed as decrease in cell population at S phase after 48 hrs by propidium iodide staining based flow cytometry analysis. Type of test: functional. Background: A flow cytometer gives signals particle by particle.
Test [6] relates to HCT-116. The test is described as follows: Cell cycle arrest in human HCT-116 cells assessed as accumulation at sub-G1 phase after 48 hrs by propidium iodide staining based flow cytometry analysis. Type of test: functional.
Test [7] addresses DNA topoisomerase 2-alpha (Homo sapiens) (UniProt P11388). The test can be described thus: Inhibition of wild type human topoisomerase-2alpha expressed in Saccharomyces cerevisiae JEL1deltatop1 assessed as induction of supercoiled DNA cleavage at 200 uM using negatively supercoiled pBRDNA as substrate incubated for 30 mins by gel electrophoresis.
Test [8] deals with A549. The test is described as follows: Antiproliferative activity against human A549 cells assessed as inhibition of cell proliferation after 48 hrs by MTT assay. Type of test: functional. To be noted: read-out: LD50 (the source's name). On the technique in general: Tetrazolium assays rely on reduction of a dye to a coloured formazan, in cell work by metabolically active cells.

Test [9] addresses DNA topoisomerase 2-alpha (Homo sapiens) (UniProt P11388). The test can be described thus: Inhibition of wild type human topoisomerase-2alpha expressed in Saccharomyces cerevisiae JEL1deltatop1 assessed as induction of supercoiled DNA cleavage using negatively supercoiled pBRDNA as substrate incubated for 30 mins by gel electrophoresis. To be noted: dose microM 100-200, time 30.0 min.

With `COc1cc([C@@H]2c3cc4c(cc3[C@H](O)[C@H]3COC(=O)[C@H]23)OCO4)c(Br)c(OC)c1OC`, the inhibition entry in test [1] was “inactive”.

For the compound `COc1c(Cl)c([C@@H]2c3cc4c(cc3[C@H](O)[C@H]3COC(=O)[C@H]23)OCO4)c(Cl)c(OC)c1OC`, the CC50 in the test on A549 [2] was found to be 17 µM; in the test on HCT-116 [3], 20 µM. The inhibition result in [1] was “Active”. In addition, the result (in test [4]; in the test on HCT-116 [5]; in the test on HCT-116 [6]) was Active.

In the case of `COc1cc([C@@H]2c3cc4c(cc3[C@H](O)[C@H]3COC(=O)[C@H]23)OCO4)c(Cl)c(OC)c1OC`, the inhibition result in test [1] is “inactive”.

Consider `COc1cc([C@@H]2c3cc4c(cc3[C@@H](O)[C@H]3COC(=O)[C@H]23)OCO4)c(Cl)c(OC)c1O`, for which the values for the CC50 in the test on A549 [2] and in the test with HCT-116 [3] were 35 µM and 33 µM, respectively. The inhibition result in test [1] is “Active”. Moreover, in test [7], the outcome was Active.

As for `COc1cc([C@@H]2c3cc4c(cc3[C@@H](O[C@@H]3O[C@@H]5CO[C@@H](C)O[C@H]5[C@H](O)[C@H]3O)[C@H]3COC(=O)[C@H]23)OCO4)cc(OC)c1O` [ETOPOSIDE], the CC50 with HCT-116 [3] came out at 1.6 µM; in the test with A549 [8] it was 11.8 µM.

On to `COc1cc([C@@H]2c3cc4c(cc3[C@H](O)[C@H]3COC(=O)[C@H]23)OCO4)cc(OC)c1OC`, for which the inhibition entry in [1] was “inactive”.

`COc1cc([C@@H]2c3cc4c(cc3[C@@H](O[C@@H]3O[C@@H]5CO[C@@H](C)O[C@H]5[C@H](O)[C@H]3O)[C@H]3COC(=O)[C@H]23)OCO4)c(Cl)c(OC)c1O`: the CC50 with HCT-116 [3] came to 120 µM. For the same compound, the inhibition entry in test [1] was “Active”. Further, the result (in test [4]; with HCT-116 [5]; in the test with HCT-116 [6]; in test [9]) was Active.
